Assay results from PubChem BioAssay (NCI).
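Exposure lasted 48 hours, with cells grown in 96-well plates and compounds tested at five concentrations. GI50 is the concentration that inhibits growth by half. The concentration for full growth arrest is given as TGI.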

Columns and labels:
Assay in all cases: DTP human tumour cell line panel, 48 h
786-0 renal = test system: 786-0 renal
A498 renal = test system: A498 renal
A549 NSCLC = test system: A549 NSCLC
ACHN renal = test system: ACHN renal
BT-549 breast = test system: BT-549 breast
CAKI-1 renal = test system: CAKI-1 renal
CCRF-CEM leukemia = test system: CCRF-CEM leukemia
COLO 205 colon = test system: COLO 205 colon
DU-145 prostate = test system: DU-145 prostate
EKVX NSCLC = test system: EKVX NSCLC
HCC-2998 colon = test system: HCC-2998 colon
HCT-116 colon = test system: HCT-116 colon
HCT-15 colon = test system: HCT-15 colon
HL-60(TB) leukemia = test system: HL-60(TB) leukemia
HOP-62 NSCLC = test system: HOP-62 NSCLC
HOP-92 NSCLC = test system: HOP-92 NSCLC
HS 578T breast = test system: HS 578T breast
HT29 colon = test system: HT29 colon
IGROV1 ovarian = test system: IGROV1 ovarian
K-562 leukemia = test system: K-562 leukemia
KM12 colon = test system: KM12 colon
LOX IMVI melanoma = test system: LOX IMVI melanoma
M14 melanoma = test system: M14 melanoma
MALME-3M melanoma = test system: MALME-3M melanoma
MCF7 breast = test system: MCF7 breast
MDA-MB-231 breast = test system: MDA-MB-231 breast
MDA-MB-435 = test system: MDA-MB-435
MOLT-4 leukemia = test system: MOLT-4 leukemia
NCI-H226 lung = test system: NCI-H226 lung
NCI-H23 lung = test system: NCI-H23 lung
NCI-H460 lung = test system: NCI-H460 lung
NCI-H522 lung = test system: NCI-H522 lung
NCI/ADR-RES ovarian = test system: NCI/ADR-RES ovarian
OVCAR-3 ovarian = test system: OVCAR-3 ovarian
OVCAR-4 ovarian = test system: OVCAR-4 ovarian
OVCAR-5 ovarian = test system: OVCAR-5 ovarian
OVCAR-8 ovarian = test system: OVCAR-8 ovarian
PC-3 prostate = test system: PC-3 prostate
RPMI-8226 leukemia = test system: RPMI-8226 leukemia
RXF 393 renal = test system: RXF 393 renal
SF-268 CNS = test system: SF-268 CNS
SF-295 CNS = test system: SF-295 CNS
SF-539 CNS = test system: SF-539 CNS
SK-MEL-2 melanoma = test system: SK-MEL-2 melanoma
SK-MEL-28 melanoma = test system: SK-MEL-28 melanoma
SK-MEL-5 melanoma = test system: SK-MEL-5 melanoma
SK-OV-3 ovarian = test system: SK-OV-3 ovarian
SN12C renal = test system: SN12C renal
SNB-19 CNS = test system: SNB-19 CNS
SNB-75 CNS = test system: SNB-75 CNS
SR leukemia = test system: SR leukemia
SW-620 colon = test system: SW-620 colon
T-47D breast = test system: T-47D breast
TK-10 renal = test system: TK-10 renal
U251 CNS = test system: U251 CNS
UACC-257 melanoma = test system: UACC-257 melanoma
UACC-62 melanoma = test system: UACC-62 melanoma
UO-31 renal = test system: UO-31 renal

Q: What does the source list for `COc1ccc2c(c1)cn1c3ccc(O)cc3nc(N)c21`?
A: GI50 (786-0 renal): 947 nM; TGI (786-0 renal): 6860 nM; GI50 (A498 renal): 498 nM; TGI (A498 renal): 17400 nM; GI50 (A549 NSCLC): 174 nM; TGI (A549 NSCLC): 4220 nM; GI50 (ACHN renal): 109 nM; TGI (ACHN renal): 5180 nM; GI50 (BT-549 breast): 4720 nM; TGI (BT-549 breast): 22700 nM; GI50 (CAKI-1 renal): 246 nM; TGI (CAKI-1 renal): 4390 nM; GI50 (CCRF-CEM leukemia): 163 nM; TGI (CCRF-CEM leukemia): > 50900 nM; GI50 (COLO 205 colon): 885 nM; TGI (COLO 205 colon): 4680 nM; GI50 (DU-145 prostate): 240 nM; TGI (DU-145 prostate): 5430 nM; GI50 (EKVX NSCLC): 1510 nM; TGI (EKVX NSCLC): 18500 nM; GI50 (HCC-2998 colon): 626 nM; TGI (HCC-2998 colon): 5240 nM; GI50 (HCT-116 colon): 34.1 nM; TGI (HCT-116 colon): 1860 nM; GI50 (HCT-15 colon): 58.5 nM; TGI (HCT-15 colon): 5990 nM; GI50 (HL-60(TB) leukemia): 765 nM; TGI (HL-60(TB) leukemia): 31300 nM; GI50 (HOP-62 NSCLC): 205 nM; TGI (HOP-62 NSCLC): 8180 nM; GI50 (HOP-92 NSCLC): 1060 nM; TGI (HOP-92 NSCLC): > 37000 nM; GI50 (HS 578T breast): 1480 nM; TGI (HS 578T breast): 33400 nM; GI50 (HT29 colon): 1450 nM; TGI (HT29 colon): 4310 nM; GI50 (IGROV1 ovarian): 176 nM; TGI (IGROV1 ovarian): 6590 nM; GI50 (K-562 leukemia): 73.5 nM; TGI (K-562 leukemia): 2460 nM; GI50 (KM12 colon): 615 nM; TGI (KM12 colon): 5700 nM; GI50 (LOX IMVI melanoma): 71.2 nM; TGI (LOX IMVI melanoma): 1940 nM; GI50 (M14 melanoma): 79.8 nM; TGI (M14 melanoma): 4980 nM; GI50 (MALME-3M melanoma): 71.4 nM; TGI (MALME-3M melanoma): 23200 nM; GI50 (MCF7 breast): 615 nM; TGI (MCF7 breast): 4990 nM; GI50 (MDA-MB-231 breast): 957 nM; TGI (MDA-MB-231 breast): 5560 nM; GI50 (MDA-MB-435): 21.7 nM; TGI (MDA-MB-435): 74.9 nM; GI50 (MOLT-4 leukemia): 1180 nM; TGI (MOLT-4 leukemia): 21700 nM; GI50 (NCI-H226 lung): 597 nM; TGI (NCI-H226 lung): 23200 nM; GI50 (NCI-H23 lung): 394 nM; TGI (NCI-H23 lung): 17700 nM; GI50 (NCI-H460 lung): 131 nM; TGI (NCI-H460 lung): 14700 nM; GI50 (NCI-H522 lung): 111 nM; TGI (NCI-H522 lung): 2220 nM; GI50 (NCI/ADR-RES ovarian): 200 nM; TGI (NCI/ADR-RES ovarian): 3330 nM; GI50 (OVCAR-3 ovarian): 75.7 nM; TGI (OVCAR-3 ovarian): 2390 nM; GI50 (OVCAR-4 ovarian): 1570 nM; TGI (OVCAR-4 ovarian): 15700 nM; GI50 (OVCAR-5 ovarian): 1570 nM; TGI (OVCAR-5 ovarian): 18300 nM; GI50 (OVCAR-8 ovarian): 375 nM; TGI (OVCAR-8 ovarian): 4920 nM; GI50 (PC-3 prostate): 761 nM; TGI (PC-3 prostate): 13400 nM; GI50 (RPMI-8226 leukemia): 1750 nM; TGI (RPMI-8226 leukemia): 12800 nM; GI50 (RXF 393 renal): 85.2 nM; TGI (RXF 393 renal): 2660 nM; GI50 (SF-268 CNS): 238 nM; TGI (SF-268 CNS): 7240 nM; GI50 (SF-295 CNS): 203 nM; TGI (SF-295 CNS): 4000 nM; GI50 (SF-539 CNS): 237 nM; TGI (SF-539 CNS): 2720 nM; GI50 (SK-MEL-2 melanoma): 270 nM; TGI (SK-MEL-2 melanoma): 5140 nM; GI50 (SK-MEL-28 melanoma): 126 nM; TGI (SK-MEL-28 melanoma): 5310 nM; GI50 (SK-MEL-5 melanoma): 76.2 nM; TGI (SK-MEL-5 melanoma): 3950 nM; GI50 (SK-OV-3 ovarian): 324 nM; TGI (SK-OV-3 ovarian): 6480 nM; GI50 (SN12C renal): 342 nM; TGI (SN12C renal): 19100 nM; GI50 (SNB-19 CNS): 357 nM; TGI (SNB-19 CNS): 25000 nM; GI50 (SNB-75 CNS): 112 nM; TGI (SNB-75 CNS): 2810 nM; GI50 (SR leukemia): 74.3 nM; TGI (SR leukemia): 2760 nM; GI50 (SW-620 colon): 38.8 nM; TGI (SW-620 colon): 5820 nM; GI50 (T-47D breast): 2340 nM; TGI (T-47D breast): 10400 nM; GI50 (TK-10 renal): 1130 nM; TGI (TK-10 renal): 5600 nM; GI50 (U251 CNS): 54.7 nM; TGI (U251 CNS): 4110 nM; GI50 (UACC-257 melanoma): 79.3 nM; TGI (UACC-257 melanoma): 1000 nM; GI50 (UACC-62 melanoma): 90 nM; TGI (UACC-62 melanoma): 20000 nM; GI50 (UO-31 renal): 148 nM; TGI (UO-31 renal): 10300 nM
